Data taken from ChEMBL document CHEMBL1201862, “PubChem BioAssay data set” (2004).
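Five concentrations, 48 hours, 96-well plates. Abbreviation: GI50, concentration required for 50% inhibition of growth.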 Calls of active or inactive are those of the source. Cut-off read from the data, not from the text of the source: active = GI50 up to about 1.1 µM and inactive = higher.

What was measured:
Experiment in all cases: NCI tumour cell line growth inhibition, 48 h
[1] = tested on: A549
[2] = tested on: KM12
[3] = tested on: MCF7
[4] = tested on: SK-MEL-5
[5] = tested on: U-251
[6] = tested on: OVCAR-5
[7] = tested on: RPMI-8226
[8] = tested on: SF-295
[9] = tested on: UACC-257
[10] = tested on: SR
[11] = tested on: HOP-62
[12] = tested on: NCI-H226
[13] = tested on: DU-145
[14] = tested on: SK-OV-3
[15] = tested on: K562
[16] = tested on: 786-0
[17] = tested on: HL-60
[18] = tested on: SK-MEL-2
[19] = tested on: SNB-75

Row | Compound | GI50 [1] | GI50 [2] | GI50 [3] | GI50 [4] | GI50 [5] | GI50 [6] | GI50 [7] | GI50 [8] | GI50 [9] | GI50 [10] | GI50 [11] | GI50 [12] | GI50 [13] | GI50 [14] | GI50 [15] | GI50 [16] | GI50 [17] | GI50 [18] | GI50 [19]
1 | Cc1cc(C)n(C(=O)C(C)Sc2nnc(SC(C)C(=O)n3nc(C)cc3C)s2)n1 (stereo not given) | > 100 µM (inactive) | > 100 µM (inactive) | > 100 µM (inactive) | > 100 µM (inactive) | > 100 µM (inactive) | > 100 µM (inactive) | > 100 µM (inactive) | > 100 µM (inactive) | > 100 µM (inactive) | > 100 µM (inactive) | > 100 µM (inactive) | > 100 µM (inactive) | > 100 µM (inactive) | > 100 µM (inactive) | > 100 µM (inactive) | > 100 µM (inactive) | > 100 µM (inactive) | > 100 µM (inactive) | > 100 µM (inactive)
2 | NS(=O)(=O)c1ccc(-n2c(-c3cccs3)nc3ccc(I)cc3c2=O)cc1 | 18.7 µM (inactive) | 24.1 µM (inactive) | 23.3 µM (inactive) | 23.7 µM (inactive) | 20 µM (inactive) | 24.6 µM (inactive) | – | 25.4 µM (inactive) | 0.0522 µM (active) | 35 µM (inactive) | 30.4 µM (inactive) | 27.4 µM (inactive) | 18.8 µM (inactive) | 22.6 µM (inactive) | – | 28.7 µM (inactive) | 20.6 µM (inactive) | – | 37.7 µM (inactive)
3 | Cc1cc2oc(-c3ccccc3)c(C)c(=O)c2c2c1OC(C)(C)S2 | 90.2 µM (inactive) | 43.7 µM (inactive) | – | 68.7 µM (inactive) | > 100 µM (inactive) | > 100 µM (inactive) | 47 µM (inactive) | > 100 µM (inactive) | 63.7 µM (inactive) | 29.6 µM (inactive) | > 100 µM (inactive) | > 100 µM (inactive) | – | > 100 µM (inactive) | 30.9 µM (inactive) | > 100 µM (inactive) | 8.13 µM (inactive) | > 100 µM (inactive) | > 100 µM (inactive)
4 | CCCCC(C)/C=C/C(O)=C1\C(=O)O/C(=C\C(=O)O)C1=O (stereo not given) | > 100 µM (inactive) | > 100 µM (inactive) | – | > 100 µM (inactive) | > 100 µM (inactive) | > 100 µM (inactive) | > 100 µM (inactive) | > 100 µM (inactive) | > 100 µM (inactive) | > 100 µM (inactive) | > 100 µM (inactive) | > 100 µM (inactive) | – | > 100 µM (inactive) | > 100 µM (inactive) | > 100 µM (inactive) | > 100 µM (inactive) | > 100 µM (inactive) | > 100 µM (inactive)
5 | O=C1OC2C(O)COC2(O)C1(O)Cc1c[nH]c2ccccc12.O=C1OC2C(O)COC2(OCc2c[nH]c3ccccc23)C1O (stereo not given) | > 100 µM (inactive) | > 100 µM (inactive) | – | > 100 µM (inactive) | > 100 µM (inactive) | > 100 µM (inactive) | > 100 µM (inactive) | > 100 µM (inactive) | > 100 µM (inactive) | > 100 µM (inactive) | > 100 µM (inactive) | > 100 µM (inactive) | – | > 100 µM (inactive) | > 100 µM (inactive) | > 100 µM (inactive) | > 100 µM (inactive) | > 100 µM (inactive) | > 100 µM (inactive)
6 | COc1ccc(C2C=C(c3ccc(C)cc3)N(c3ccc(OC)cc3[N+](=O)[O-])C3C(=O)OC(=O)C23)c(OC)c1 (stereo not given) | 37 µM (inactive) | 7.8 µM (inactive) | 42.5 µM (inactive) | 64.6 µM (inactive) | 45.9 µM (inactive) | 48.3 µM (inactive) | 22 µM (inactive) | 43.9 µM (inactive) | 77.6 µM (inactive) | 20.1 µM (inactive) | 96.6 µM (inactive) | 31.5 µM (inactive) | – | 25 µM (inactive) | 37.8 µM (inactive) | 30.8 µM (inactive) | 31.8 µM (inactive) | 24 µM (inactive) | 20.2 µM (inactive)
7 | N#Cc1c(N)sc2c1-c1ccccc1OC2 | 32.4 µM (inactive) | 38.2 µM (inactive) | 40 µM (inactive) | 45.3 µM (inactive) | 45.1 µM (inactive) | 31.6 µM (inactive) | 33.6 µM (inactive) | – | > 100 µM (inactive) | 19.1 µM (inactive) | 46.3 µM (inactive) | 93.5 µM (inactive) | 50.1 µM (inactive) | 38.2 µM (inactive) | 34.2 µM (inactive) | – | 16.4 µM (inactive) | 38.5 µM (inactive) | –
8 | COc1ccc(C2COc3c(ccc(O)c3C)C2)cc1OC (stereo not given) | 60.8 µM (inactive) | 102 µM (inactive) | 81.7 µM (inactive) | 11.7 µM (inactive) | 64.6 µM (inactive) | 119 µM (inactive) | 17.7 µM (inactive) | 58.9 µM (inactive) | 149 µM (inactive) | – | 163 µM (inactive) | 57.5 µM (inactive) | – | > 187 µM (inactive) | 59.6 µM (inactive) | – | 21.6 µM (inactive) | 69.7 µM (inactive) | 38.1 µM (inactive)
9 | N#C/C(=C/c1ccc[nH]1)P(=O)(O)O | > 100 µM (inactive) | > 100 µM (inactive) | – | > 100 µM (inactive) | > 100 µM (inactive) | > 100 µM (inactive) | > 100 µM (inactive) | > 100 µM (inactive) | > 100 µM (inactive) | > 100 µM (inactive) | > 100 µM (inactive) | > 100 µM (inactive) | – | > 100 µM (inactive) | > 100 µM (inactive) | > 100 µM (inactive) | > 100 µM (inactive) | > 100 µM (inactive) | 80.4 µM (inactive)
10 | C=C1C(=O)O[C@@H]2OC3(C)CCC4C(C)CCC1C42OO3 (stereo not given in full) | 4.99 µM (inactive) | 3.38 µM (inactive) | 3.39 µM (inactive) | 4.88 µM (inactive) | 4.85 µM (inactive) | 15.7 µM (inactive) | 1.42 µM (inactive) | 3.85 µM (inactive) | 3.18 µM (inactive) | – | 22.1 µM (inactive) | 11.5 µM (inactive) | – | 20.3 µM (inactive) | 2.07 µM (inactive) | – | 0.449 µM (active) | 2.18 µM (inactive) | 3.59 µM (inactive)
11 | CCOc1ccc(NC(=O)C(=O)CC(=O)c2c[n+]([O-])c3cc(C)c(C)cc3[n+]2[O-])cc1 | > 100 µM (inactive) | > 100 µM (inactive) | – | > 100 µM (inactive) | > 100 µM (inactive) | > 100 µM (inactive) | > 100 µM (inactive) | > 100 µM (inactive) | > 100 µM (inactive) | > 100 µM (inactive) | > 100 µM (inactive) | > 100 µM (inactive) | – | > 100 µM (inactive) | > 100 µM (inactive) | > 100 µM (inactive) | > 100 µM (inactive) | > 100 µM (inactive) | > 100 µM (inactive)
12 | CCOC(=O)/C=C/c1nc(C#N)c(N)o1 | > 100 µM (inactive) | > 100 µM (inactive) | > 100 µM (inactive) | > 100 µM (inactive) | > 100 µM (inactive) | > 100 µM (inactive) | > 100 µM (inactive) | – | > 100 µM (inactive) | > 100 µM (inactive) | > 100 µM (inactive) | – | > 100 µM (inactive) | > 100 µM (inactive) | > 100 µM (inactive) | > 100 µM (inactive) | > 100 µM (inactive) | > 100 µM (inactive) | > 100 µM (inactive)
13 | CN(C)CCNC(=O)c1cccc2ccc(-c3ccc(Br)cc3)nc12 | 1.09 µM (active) | 3.45 µM (inactive) | 2.92 µM (inactive) | 1.46 µM (inactive) | 2.8 µM (inactive) | 2.96 µM (inactive) | 1.29 µM (inactive) | 3.76 µM (inactive) | 2.8 µM (inactive) | – | 0.832 µM (active) | 1.89 µM (inactive) | – | 2.82 µM (inactive) | 1.7 µM (inactive) | – | 1.23 µM (inactive) | 3.09 µM (inactive) | 3.27 µM (inactive)
14 | CC1=CC2=C(C)C3(CC3)[C@@](C)(O)C(=O)C2=C1 | 0.314 µM (active) | 0.355 µM (active) | – | 0.122 µM (active) | 0.209 µM (active) | 0.239 µM (active) | > 1 µM (active) | 0.223 µM (active) | 0.237 µM (active) | > 1 µM (active) | 0.146 µM (active) | 0.231 µM (active) | – | 0.293 µM (active) | > 1 µM (active) | 0.217 µM (active) | 0.135 µM (active) | 0.191 µM (active) | 0.19 µM (active)
15 | Cc1nc2c(s/c(=N\N)n2-c2ccccc2)c(=O)[nH]1 | > 100 µM (inactive) | > 100 µM (inactive) | – | > 100 µM (inactive) | > 100 µM (inactive) | > 100 µM (inactive) | > 100 µM (inactive) | > 100 µM (inactive) | > 100 µM (inactive) | > 100 µM (inactive) | > 100 µM (inactive) | > 100 µM (inactive) | – | > 100 µM (inactive) | > 100 µM (inactive) | > 100 µM (inactive) | > 100 µM (inactive) | > 100 µM (inactive) | > 100 µM (inactive)
16 | O=C(NO)C(=O)Nc1ccc(Cl)cc1[N+](=O)[O-] | > 100 µM (inactive) | > 100 µM (inactive) | – | > 100 µM (inactive) | > 100 µM (inactive) | > 100 µM (inactive) | > 100 µM (inactive) | > 100 µM (inactive) | > 100 µM (inactive) | > 100 µM (inactive) | > 100 µM (inactive) | > 100 µM (inactive) | – | > 100 µM (inactive) | > 100 µM (inactive) | > 100 µM (inactive) | > 100 µM (inactive) | > 100 µM (inactive) | > 100 µM (inactive)
